Experiments:
[1] = target: T1, RARα (Homo sapiens, UniProt P10276); test: ligand binding assay, RARα; conditions: Kd line of EC50/(EFFICACY)/Kd, K = thousand, read-out: RAR α Kd
T1 sequence (P10276 1-462): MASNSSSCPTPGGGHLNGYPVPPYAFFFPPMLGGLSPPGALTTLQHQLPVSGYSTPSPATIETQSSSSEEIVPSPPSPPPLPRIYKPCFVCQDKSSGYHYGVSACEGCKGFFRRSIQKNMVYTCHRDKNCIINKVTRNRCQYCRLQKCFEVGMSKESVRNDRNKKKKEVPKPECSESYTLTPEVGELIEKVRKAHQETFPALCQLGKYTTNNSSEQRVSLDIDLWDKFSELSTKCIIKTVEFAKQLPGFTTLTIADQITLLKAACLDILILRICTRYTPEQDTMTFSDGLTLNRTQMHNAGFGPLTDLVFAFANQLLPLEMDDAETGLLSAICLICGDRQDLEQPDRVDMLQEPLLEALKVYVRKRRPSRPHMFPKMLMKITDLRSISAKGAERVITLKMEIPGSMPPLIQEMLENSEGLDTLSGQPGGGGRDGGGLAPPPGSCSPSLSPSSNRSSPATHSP
Text: (§1) Assays described below measure the ability of a compound to bind to, and/or activate various retinoid receptor subtypes. When in these assays a compound binds to a given receptor subtype and activates the transcription of a reporter gene through that subtype, then the compound is considered an agonist of that receptor subtype. […] In the below described assays the ability of the compounds to bind to RARα, RARβ, RARγ, RXRα, RXRβ and RXRγ receptors, and the ability or inability of the compounds to activate transcription of a reporter gene through these receptor subtypes can be tested.
(§2) The results obtained in this assay are expressed in EC50 numbers, as they are also in the chimeric receptor transactivation assay. The results of ligand binding assay are expressed in Kd numbers.

[2] = target: T2, RARγ (Homo sapiens, UniProt P13631); test: ligand binding assay, RARγ; conditions: Kd line of EC50/(EFFICACY)/Kd, K = thousand, read-out: RAR γ Kd
T2 sequence (P13631 1-454): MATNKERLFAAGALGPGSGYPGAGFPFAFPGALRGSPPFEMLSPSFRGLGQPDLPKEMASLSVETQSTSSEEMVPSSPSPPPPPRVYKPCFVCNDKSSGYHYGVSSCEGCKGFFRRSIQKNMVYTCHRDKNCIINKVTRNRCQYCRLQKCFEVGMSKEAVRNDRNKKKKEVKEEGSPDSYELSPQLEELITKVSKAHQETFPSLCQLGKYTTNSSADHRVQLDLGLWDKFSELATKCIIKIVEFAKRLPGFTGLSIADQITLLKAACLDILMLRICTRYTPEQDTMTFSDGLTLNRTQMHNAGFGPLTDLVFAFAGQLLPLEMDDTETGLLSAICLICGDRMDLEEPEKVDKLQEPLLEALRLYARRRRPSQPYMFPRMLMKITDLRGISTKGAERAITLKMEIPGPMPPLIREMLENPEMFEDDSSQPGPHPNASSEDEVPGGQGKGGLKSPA
Text: as §1, §2

Kd [1]: 90 nM
Kd [2]: 4390 nM
Structure (SMILES): CC1(C)CC(C)(C)c2cc(C#Cc3ccc(C(=O)O)cc3)ccc2O1 [Compound 201]

From patent publication US6855512B2, “Methods for identifying inhibitors of cytochrome P450RAI” (Allergan, Inc., priority 2000, dated 2005)
